Patent publication US20060216266A1, “Absorbable alpha-cyanoacrylate compositions” (priority 2005, published 2006)

Legend:
[1] = Lap shear testing using pig skin; settings: 1/2" x 1" overlap, about 100 μl adhesive, cure 20~30 min, Instron pulling rate 5 mm/min, about 10 joints
Procedure: General Procedure for Lap Shear Testing Using Pig Skin
Fresh pig skin was harvested from the back of the pig within 5 hours post sacrifice. The hair was removed by trimming and shaving to expose a smooth skin surface. The fat attached to the inside skin surface was trimmed away. The skin was cut into 2″×1″ coupons and covered by saline moist paper towel before use.
The external surface of the skin was used as bonding surface to prepare the lap shear joint samples.
The coupons were patted dry prior to forming the lap shear joint. About 1 00 μl of adhesive was deposited to one coupon within ½″ from the nearer end and smoothed to cover a ½″×1″ area (FIG. 1). The other coupon was placed over the area of the coupon with applied adhesive to form an overlap of ½″×1″. A 1 lb weight was placed on top of the overlap area. The joint was allowed to cure for 20˜30 min and the strength of the joint was tested as described below.
The strength of the cured joint was tested using an Instron (Model 5544) with a pulling rate of 5 mm/min. The maximum load for the joint to fail was recorded.
Typically, about 10 joint samples were tested for each adhesive.

[2] = Glass transition temperature of polymer film; format: physicochemical; settings: adhesive polymer formed from the monomer
Procedure: A 1″×1″ Prolene mesh (Ethicon, Inc.) was briefly rinsed with 0.5% wt NaHCO3 aqueous solution and patted dry. The mesh was placed on a freshly prepared Agar plate in a petri dish and about 100 mg of monomer adhesive was applied and spread evenly across the mesh. The monomer adhesive was allowed to cure completely overnight with the petri dish covered and sealed with parafilm. The fully cured polymer film formed over the mesh was removed and rinsed with deionized water to remove any Agar attached and patted dry with paper towel. The thickness of the polymer film was about 0.6 mm.

[3] = Bonding of two moist fingertips by monomer; settings: very small amount of monomer placed between two moist fingertips

Glass Transition Temperature (Tg, ° C.) [2]	Compound	Load (maximum load for the lap shear joint to fail) [1]	Bonding of fingertips [3]
	C=C(C#N)C(=O)OCCCCCC(=O)OCC [Et-ε-CPL-CA, 6-(2-Cyano-acryloyloxy)-hexanoic acid ethyl ester]	3.68 ± 0.64 Ib	
−11 °C	C=C(C#N)C(=O)OC(CCC)CC(=O)OCC (stereo not drawn) [Et-β-CPL-CA, 3-(2-Cyano-acryloyloxy)-hexanoic acid ethyl ester]	4.49 ± 0.68 Ib	bonded the fingertips strongly within one minute
	C=C(C#N)C(=O)OC(CCCC)C(=O)OCC (stereo not drawn) [Et-α-CPL-CA, 2-(2-Cyano-acryloyloxy)-hexanoic acid ethyl ester]	1.26 ± 0.29 Ib	
32 °C	C=C(C#N)C(=O)OC(C)CC(=O)OCC (stereo not drawn) [Et-β-HBT-CA, 3-(2-Cyano-acryloyloxy)-butyric acid ethyl ester]	4.09 ± 0.48 Ib	bonded the fingertips strongly within one minute

Compound	Glass Transition Temperature (Tg, ° C.) [2]	Load (maximum load for the lap shear joint to fail) [1]	Bonding of fingertips [3]
C=C(C#N)C(=O)OC(C)C(=O)OCCCC (centres unmarked) [Bu-Lac-CA, 2-Cyano-acrylic acid 1-butoxycarbonyl-ethyl ester, reference compound]	52 °C	4.96 ± 0.67 Ib	bonded the fingertips strongly within one minute
